Source: patent US20210222181A1, “BACTERIAL VECTORS FOR GENETIC MANIPULATION OF BACTERIA” (BIOVERSYS AG, priority 2018, published 2021)

System: clinical P. aeruginosa strains
Experiment: Inhibition of motility of clinical P. aeruginosa strains on LB-agar plates
Assay type: cell-based, Pseudomonas aeruginosa
Settings: three clinical isolates of P. aeruginosa, 10 μg/ml C15 in LB-agar, 16 h at 37° C., compared with absence of C15
Experimental: Motility of clinical P. aeruginosa strains was inhibited by 12-Methyl-tetradecanoic acid (C15). Three different clinical isolates of P. aeruginosa were plated on LB-agar plates in the absence (FIG. 9, left) and presence (FIG. 9, right) of 10 μg/ml C15 to inhibit cellular motility. The plates were incubated for 16 h at 37° C. […] In contrast, in the absence of C15, the colonies are diffuse and swarm into each other, making the selection of distinct single colonies in the knock-out screening process very difficult.

CCC(C)CCCCCCCCCCC(=O)O (centres unmarked) [C15, 12-Methyl-tetradecanoic acid]
cellular motility / colony morphology on Luria Bertani agar plates: inhibited the cellular motility, leading to small well-defined colonies | cellular motility / colony morphology on Luria Bertani agar plates (listed as 12-Methyl-tetradecanoic acid (C15)): Inhibition of the motility
